US5145869A, “Phenylsulfonylalkanoic acid compounds and pharmaceuticals thereof” (Kissei Pharmaceutical Co., Ltd., priority 1991, dated 1992)

These compounds were tested on amylase secretion stimulated by CCK-8 (assay: Effect on Amylase Secretion in Rats). Settings: Rattus norvegicus, intraduodenal administration 30 minutes before CCK-8 (10 μg/kg, subcutaneous), anesthetized rats.
Format: in vivo, Male Wistar rats
Procedure: Effect on Amylase Secretion in Rats
Male Wistar rats were anesthetized with urethane (1.5 g/kg, S.C.), and tracheal cannula was inserted. Biliopancreatic juice was collected from the cannula which had been inserted into the common bile duct. Thirty minutes after intraduodenal administration of test drug, amylase secretion was stimulated by subcutaneous injection of CCK-8 (10 μg/kg). Amylase concentration in the sample collected every 30 minutes during experiment was assayed using Amylase B Test (Wako), and ED50 value was calculated.
CCCCCN(CCCCC)C(=O)C(CCC(=O)O)CS(=O)(=O)c1ccc(Cl)c(Cl)c1 (racemic) [Compound 19, 5-(3,4-Dichlorophenylsulfonyl)-4-(N,N-dipentylcarbamoyl)pentanoic acid] showed an ED50 of 2.2 mg/kg.
In the case of CCCCCN(CCCOC)C(=O)C(CCC(=O)O)CS(=O)(=O)c1ccc(Cl)c(Cl)c1 (racemic) [Compound 22, 5-(3,4-dichlorophenylsulfonyl)-4-[N-(3-methoxypropyl)-N-pentylcarbamoyl]pentanoic acid], the ED50 is reported as 9.5 mg/kg.
Work on CCCCCN(CCCCC)C(=O)C(CCC(=O)O)CS(=O)(=O)c1ccc(Cl)c(Cl)c1 (single isomer, unassigned) [Compound 20] yielded an ED50 of 4.7 mg/kg.

These compounds were tested against T1, CCK-Receptor (Rattus norvegicus, UniProt P30551) (assay: CCK-Receptor Binding Assay in Pancreas). Settings: inhibition of specific 125I-CCK-8 (30 pM) binding, rat pancreatic plasma membranes, 37° C., 30 minutes, pH 7.4.
T1 construct: Pancreatic plasma membranes were prepared by the method of Chang et al; from tissue; host or cells: pancreatic plasma membranes of male Wistar rats
T1 sequence (P30551 1-444): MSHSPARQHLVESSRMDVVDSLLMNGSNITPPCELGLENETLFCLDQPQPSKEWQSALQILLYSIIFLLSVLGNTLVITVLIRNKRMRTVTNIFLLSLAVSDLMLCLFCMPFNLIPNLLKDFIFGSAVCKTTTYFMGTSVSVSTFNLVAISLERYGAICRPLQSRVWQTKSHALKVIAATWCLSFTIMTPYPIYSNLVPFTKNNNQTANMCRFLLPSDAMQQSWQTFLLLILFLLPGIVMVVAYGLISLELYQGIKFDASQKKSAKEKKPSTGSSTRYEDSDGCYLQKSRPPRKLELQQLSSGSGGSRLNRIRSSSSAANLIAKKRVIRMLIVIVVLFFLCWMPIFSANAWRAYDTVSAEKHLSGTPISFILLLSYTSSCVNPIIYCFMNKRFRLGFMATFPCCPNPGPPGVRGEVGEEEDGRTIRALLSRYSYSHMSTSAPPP
Parameters: species or system Male Wistar rats
Procedure: CCK-Receptor Binding Assay in Pancreas
Pancreatic plasma membranes were prepared by the method of Chang et al. (Molecular Pharmacology, Vol. 30, p. 212-, 1986). Male Wistar rats were sacrificed by decapitation and the pancreas was removed. The pancreas was dissected free from adipose tissue and minced in 50 volumes ice-cold Tris-HCl buffer (50 mM, pH 7.4 at 37° C.). Homogenization was performed using ultra disperser and the homogenate was centrifuged at 50,000×g for 10 minutes. The pellet was washed by resuspension in the same volume of fresh Tris-HCl buffer and again centrifuged as above. The final pellet was suspended in assay buffer (50 mM Tris-HCl, 5 mM MgCl2, 5 mM dithiothreitol, 2 mg/ml of bovine serum albumin, and 0.14 mg/ml of bacitracin), and used as receptor sources for binding assay.
Thirty pM ^125 I-CCK-8 (final concentration), test drug or vehicle (for total binding) or 10^-6 M CCK-8 (for nonspecific binding) were added to the assay medium containing pancreatic plasma membranes (0.5 mg of original wet weight/ml). After incubation at 37° C. for 30 minutes, the assay medium was filtrated under reduced pressure through glass fiber filter and washed four times with 4 ml of ice-cold Tris-HCl buffer. The radioactivity trapped on the filter was counted by γ-counter (Packard 5650).
Specific binding was defined as the radioactivity bound after subtracting nonspecific binding determined in the presence of 10^-6 M unlabeled CCK-8. IC50 value was calculated from inhibition percentage of specific binding by each test drug.
CCCCCN(CCCCC)C(=O)C(CCC(=O)OC)CS(=O)(=O)c1ccc(Cl)c(Cl)c1 (racemic) [Compound 1, Methyl 5-(3,4-dichlorophenylsulfonyl)-4-(N,N-dipentylcarbamoyl)pentanoate] gave an IC50 of 0.88 µM.
For CCCCCN(CCCCC)C(=O)C(CCC(=O)O)CS(=O)(=O)c1ccc(Cl)c(Cl)c1 (racemic) [Compound 19, 5-(3,4-Dichlorophenylsulfonyl)-4-(N,N-dipentylcarbamoyl)pentanoic acid], the IC50 was 0.2 µM.
CCCCCN(CCCOC)C(=O)C(CCC(=O)O)CS(=O)(=O)c1ccc(Cl)c(Cl)c1 (racemic) [Compound 22, 5-(3,4-dichlorophenylsulfonyl)-4-[N-(3-methoxypropyl)-N-pentylcarbamoyl]pentanoic acid] gave an IC50 of 0.23 µM.
With CCCCCN(CCCCC)C(=O)C(CCC(=O)O)CS(=O)(=O)c1cccc(Cl)c1 (racemic) [Compound 27] the IC50 was 4.7 µM.
For CCCCCN(CCCCC)C(=O)C(CCC(=O)O)CS(=O)(=O)c1cccc(Br)c1 (racemic) [Compound 28], the IC50 was 3 µM.
CCCCCN(CCCCC)C(=O)C(CC(=O)O)CS(=O)(=O)c1ccc(Cl)c(Cl)c1 (racemic) [Compound 29] was tested, and the IC50 was 0.095 µM.
Compound CCCCCN(CCCCC)C(=O)C(CCCC(=O)O)CS(=O)(=O)c1ccc(Cl)c(Cl)c1 (racemic) [Compound 30] has an IC50 of 0.23 µM.
CCCCN(C)C(=O)C(CCC(=O)O)CS(=O)(=O)c1ccc(Cl)c(Cl)c1 (racemic) [Compound 31] showed an IC50 of 8.8 µM.
Compound CCCCN(CCCC)C(=O)C(CCC(=O)O)CS(=O)(=O)c1ccc(Cl)c(Cl)c1 (racemic) [Compound 32] has an IC50 of 0.28 µM.
CCCCCCN(CCCCCC)C(=O)C(CCC(=O)O)CS(=O)(=O)c1ccc(Cl)c(Cl)c1 (racemic) [Compound 33] showed an IC50 of 0.059 µM.
In the case of CCCCCCCN(CCCCCCC)C(=O)C(CCC(=O)O)CS(=O)(=O)c1ccc(Cl)c(Cl)c1 (racemic) [Compound 34], the IC50 is reported as 0.43 µM.
For CC(C)CCN(CCC(C)C)C(=O)C(CCC(=O)O)CS(=O)(=O)c1ccc(Cl)c(Cl)c1 (racemic) [Compound 35], the IC50 was 0.13 µM.
In the case of CCCCCN(CCCCC)C(=O)C(CCC(=O)O)CS(=O)(=O)c1ccc(Cl)c(Cl)c1 (single isomer, unassigned) [Compound 20], the IC50 is reported as 0.11 µM.
In the case of CCCCCN(CCCCC)C(=O)C(CCC(=O)O)CS(=O)(=O)c1ccc(Cl)c(Cl)c1 (single isomer, unassigned) [Compound 21], the IC50 is reported as 1.1 µM.
Work on CCCCCN(CCCOC)C(=O)C(CCC(=O)O)CS(=O)(=O)c1ccc(Cl)c(Cl)c1 (single isomer, unassigned) [Compound 23] yielded an IC50 of 0.29 µM.
CCCCCN(CCCOC)C(=O)C(CCC(=O)O)CS(=O)(=O)c1ccc(Cl)c(Cl)c1 (single isomer, unassigned) [Compound 24] gave an IC50 of 4 µM.
For CCCCCN(CCCCC)C(=O)C(CC(=O)OC)CS(=O)(=O)c1ccc(Cl)c(Cl)c1 (stereo not drawn) [Compound 11], the IC50 was 0.98 µM.
With CCCCCN(CCCCC)C(=O)C(CCCC(=O)OC)CS(=O)(=O)c1ccc(Cl)c(Cl)c1 (stereo not drawn) [Compound 12] the IC50 was 4.8 µM.
CCCCCN(CCCCC)C(=O)C(CCC(=O)OCC)CS(=O)(=O)c1ccc(Cl)c(Cl)c1 (stereo not drawn) [Compound 18] was tested, and the IC50 was 1.1 µM.
In the case of CCCCCN(CCCCC)C(=O)C(CCC(=O)O)CS(=O)(=O)c1cc(Cl)cc(Cl)c1 (stereo not drawn) [Compound 25], the IC50 is reported as 1.5 µM.
CCCCCN(CCCCC)C(=O)C(CCC(=O)O)CS(=O)(=O)c1ccc(Cl)cc1 (stereo not drawn) [Compound 26] gave an IC50 of 1 µM.
Compound CCCCCCN(CCCCc1ccccc1)C(=O)C(CCC(=O)OC)CS(=O)(=O)c1ccc(Cl)c(Cl)c1 (stereo not drawn) [Compound 40] has an IC50 of 5.8 µM.
With COC(=O)CCC(CS(=O)(=O)c1ccc(Cl)c(Cl)c1)C(=O)N(C)Cc1ccccc1 (stereo not drawn) [Compound 41, methyl 4-(N-benzyl-N-methylcarbamoyl)-5-(3,4-dichlorophenylsulfonyl)pentanoate] the IC50 was 3.5 µM.
CCCCCN(CCc1ccccc1)C(=O)C(CCC(=O)O)CS(=O)(=O)c1ccc(Cl)c(Cl)c1 (stereo not drawn) [Compound 42, 5-(3,4-dichlorophenylsulfonyl)-4-(N-pentyl-N-phenethylcarbamoyl)pentanoic acid] showed an IC50 of 0.21 µM.
For CCCCCN(CCCc1ccccc1)C(=O)C(CCC(=O)O)CS(=O)(=O)c1ccc(Cl)c(Cl)c1 (stereo not drawn) [Compound 43], the IC50 was 0.11 µM.
Compound O=C(O)CCC(CS(=O)(=O)c1ccc(Cl)c(Cl)c1)C(=O)N(CCc1ccccc1)CCc1ccccc1 (stereo not drawn) [Compound 44] has an IC50 of 0.23 µM.
O=C(O)CCC(CS(=O)(=O)c1ccc(Cl)c(Cl)c1)C(=O)N(CCCc1ccccc1)CCCc1ccccc1 (stereo not drawn) [Compound 45] gave an IC50 of 1 µM.
CCCCCCN(CCCCc1ccccc1)C(=O)C(CCC(=O)O)CS(=O)(=O)c1ccc(Cl)c(Cl)c1 (stereo not drawn) [Compound 46] showed an IC50 of 0.57 µM.
CN(Cc1ccccc1)C(=O)C(CCC(=O)O)CS(=O)(=O)c1ccc(Cl)c(Cl)c1 (stereo not drawn) [Compound 47] showed an IC50 of 1.8 µM.
Compound CCCCCN(CCCCC)C(=O)C(CCC(=O)O)CS(=O)(=O)c1ccc(C)c(C)c1 (stereo not drawn) [Compound 48] has an IC50 of 0.29 µM.
CCCCCN(CCCCC)C(=O)C(CCC(=O)O)CS(=O)(=O)c1ccc(C)cc1 (stereo not drawn) [Compound 49] gave an IC50 of 3.4 µM.
In the case of CCCCCN(CCCCC)C(=O)C(CCC(=O)O)CS(=O)(=O)c1ccc([N+](=O)[O-])cc1 (stereo not drawn) [Compound 50], the IC50 is reported as 0.73 µM.
Work on CCCCCN(CCCCC)C(=O)C(CCC(=O)O)CS(=O)(=O)c1ccc(C(C)=O)cc1 (stereo not drawn) [Compound 51, 5-(4-Acetylphenylsulfonyl)-4-(N,N-dipentylcarbamoyl)pentanoic acid] yielded an IC50 of 2 µM.

Each compound was assayed on gallbladder contraction induced by CCK-8 (assay: CCK-Antagonism in Isolated Gallbladder). Settings: Cavia porcellus; antagonism of gallbladder strip contraction induced by 10^-8 M CCK-8, 37° C.
Format: cell-based, male Hartley guinea-pig
Procedure: CCK-Antagonism in Isolated Gallbladder
Gallbladder strips isolated from male Hartley guinea-pig were prepared and suspended in Magnus bath filled with Krebs solution (1 g of initial tension). The solution kept at 37° C. was aerated with a mixture of 95% O2 and 5% CO2. The isometric contraction of strips was recorded through a force-displacement transducer. Antagonism by test drugs against gallbladder contraction induced by 10^-8 M CCK-8 was examined and IC50 value was calculated.
CCCCCN(CCCCC)C(=O)C(CCC(=O)O)CS(=O)(=O)c1ccc(Cl)c(Cl)c1 (racemic) [Compound 19, 5-(3,4-Dichlorophenylsulfonyl)-4-(N,N-dipentylcarbamoyl)pentanoic acid] was tested, and the IC50 was 11 µM.
Compound CCCCCN(CCCOC)C(=O)C(CCC(=O)O)CS(=O)(=O)c1ccc(Cl)c(Cl)c1 (racemic) [Compound 22, 5-(3,4-dichlorophenylsulfonyl)-4-[N-(3-methoxypropyl)-N-pentylcarbamoyl]pentanoic acid] has an IC50 of 3.4 µM.
For CCCCCN(CCCCC)C(=O)C(CCC(=O)O)CS(=O)(=O)c1ccc(Cl)c(Cl)c1 (single isomer, unassigned) [Compound 20], the IC50 was 5.1 µM.
